What all share (format): functional, Homo sapiens, Cancer cell lines
A short description of assay [1]: Antitumor activity against lung cancer cells in lung cancer patient assessed as survival rate relative to control.
The nature of assay [2]: Antitumor activity against lung cancer cells in lung cancer patient assessed as remission rate relative to control.
Assay [3] is described as follows: Antitumor activity against lung cancer cells in lung cancer patient assessed as tumor growth inhibition relative to control.

Structures are written as SMILES.

Regarding `CC(C)=CC[C@@H](O)C1=CC(=O)c2c(O)ccc(O)c2C1=O` [SHIKONIN], the Survival in assay [1] worked out at 47%. In addition, the Activity in assay [2] is on record as 37%. For the same molecule, the TGI in assay [3] was 63%.

For orientation: TGI means the reduction of tumour growth relative to the control group.

For the origin of these results see ChEMBL document CHEMBL2384905, “Therapeutic agents triggering nonapoptotic cancer cell death” (J Med Chem, 2013).
